Patent US20090274687A1, “ATTENUATION OF HYPOXIA INDUCED CARDIOVASCULAR DISORDERS” (University Of Miami, priority 2008, published 2009)
“Also recorded” adds a separate entry of the source.

Experiments:
[1] = test system: FVB/NJ neonatal mice exposed to normobaric hypoxia (hypoxia-induced pulmonary hypertension); experiment: Prevention: neonatal mice exposed to 1 wk hypoxia, daily intraperitoneal treatment postnatal day 1-7; assay type: in vivo
Method: Animal Care and Treatment: Sixty Eight FVB/NJ neonatal mice exposed to normobaric hypoxia (10% O2) or normoxia (20.9% O2) for one week were randomly assigned to receive daily intraperitoneal injections of normal saline (PL; n=19), or AMD3100 (7.5 mg/kg; n=10) or anti-SDF-1 antibody ([…]; n=19) for seven days, from postnatal day 1-7.

[2] = test system: CXCR4 receptor; settings: cited from earlier work

Compound: c1cc(CN2CCCNCCNCCCNCC2)ccc1CN1CCCNCCNCCCNCC1 [AMD3100, 1,1′-[1,4-phenylenebis(methylene)]bis-1,4,8,11-tetraazacyclotetradecane]
- vascular remodeling (medial wall thickness), morphometric analysis of pulmonary arterioles ([1]; 1 wk hypoxia, 20-50 μm diameter arterioles, vs Hyp PL, FIG. 5D): marked decrease; also recorded: markedly attenuated
- RV c-kit expression ([1]; 1 wk hypoxia, right ventricle, vs Hyp PL, FIG. 4C): significantly decreased
- RV Sca-1 expression ([1]; 1 wk hypoxia, right ventricle, vs Hyp PL, FIG. 4D): significantly decreased
- RV Isl-1 expression ([1]; 1 wk hypoxia, right ventricle, vs Hyp PL, FIG. 4E): significantly decreased
- protein expression of stem cell markers (c-kit, Sca-1) in lungs and right ventricles ([1]; 1 wk hypoxia, to baseline or near baseline values, FIGS. 4A-4E): significantly decreased
- lung c-kit expression ([1]; 1 wk hypoxia, vs Hyp PL, to near baseline values, FIG. 4A): significantly decreased
- lung Sca-1 expression ([1]; 1 wk hypoxia, vs Hyp PL, to near baseline values, FIG. 4B): significantly decreased
- RVSP ([1]; 1 wk hypoxia, vs placebo, FIG. 5A): close to baseline values; also recorded: significantly attenuated
- RV Hypertrophy (RV/LV+S) ([1]; 1 wk hypoxia, vs placebo, FIG. 5B): close to baseline values; also recorded: significantly attenuated
- number of muscularized pulmonary arterioles (α-smooth muscle actin staining) ([1]; 1 wk hypoxia, vs placebo, FIG. 5C): decreased
- percentage of non-muscularized pulmonary arterioles ([1]; 1 wk hypoxia, vs placebo, FIG. 5E): significantly increased
- mean linear intercept (MLI), lung alveolarization ([1]; 1 wk hypoxia, vs placebo, FIG. 5F): significantly decreased
- number of PCNA+ cells in the pulmonary vasculature (cell proliferation) ([1]; hypoxic mouse pups vs Hyp PL, FIGS. 6A-6B): significantly attenuated
- number of TUNEL+ cells in the pulmonary vasculature (apoptosis) ([1]; hypoxic mouse pups vs Hyp PL, FIGS. 6D-6E): significantly attenuated
- phosphorylated-Akt expression in lungs ([1]; treated mouse pups vs placebo, FIG. 6C): marked decrease
- affinity relative to its affinity in CXCR4 ([2]; after introduction of Glu VII:06 and removal of Lys VII:02): ≤ 10 fold
- increase in affinity of AMD3100 ([2]; introduction of a Glu at position VII:06 and removal of a neutralizing Lys residue at position VII:02): 1000 fold
